Assay [1] is described as follows: Inhibition of CG-14 binding was determined in solid phase assay. On the set-up: species or system Gallus gallus.
Assay [2] is described as follows: Inhibition of galectin-1 binding was determined in solid phase assay.

Consider 2 molecules from ChEMBL document CHEMBL1147623, “Interference of the galactose-dependent binding of lectins by novel pentapeptide ligands” (Bioorg Med Chem Lett, 2004).

`CC(C)C[C@H](NC(=O)[C@H](Cc1ccc(O)cc1)NC(=O)[C@@H](CC(=O)O)NC(=O)COCC(=O)NCCCOCCOCCOCCCN)C(=O)N[C@@H](Cc1ccc(O)cc1)C(=O)N[C@@H](Cc1ccccc1)C(N)=O`: the IC50 in assay [1] was determined as 6.9 mM; in assay [2], 8 mM.
Taken in the same sequence, the figures for `CC(O)[C@@H](NC(=O)COCC(=O)NCCCOCCOCCOCCCN)C(=O)N[C@@H](Cc1ccc(O)cc1)C(=O)N[C@H](CC(=O)O)C(=O)N[C@@H](Cc1ccc(O)cc1)C(=O)N[C@@H](Cc1ccccc1)C(N)=O` (some centres undefined) were 7.5 mM and 5.2 mM.

In general, IC50 refers to the point on the concentration scale where inhibition reaches its midpoint.
